Laboratory results taken from patent US5023262A, “Hydrogenated rapamycin derivatives” (American Home Products Corporation, priority 1990, dated 1991).
In brackets after ≈: the same amount, converted by molar mass.

What was measured:
Candida albicans 3669 = assay: Antifungal plate test, inhibition of Candida albicans 3669; type: cell-based; settings: strain 3669; for MIC: Candida albicans, read-out: MIC to inhibit growth
Experimental: (§1) The following represents the typical procedure used. Compound to be tested was placed on sterile dried 1/4" plate disks, and allowed to dry. Agar plates were seeded with fungi and allowed to solidify. The impregnated disks were placed on the seeded Agar surface and incubated for the time required for the particular culture. Results are expressed in MIC (μg/ml) to inhibit growth.

[1] = tested on: cells from the thymus of normal BALB/c mice; assay: Comitogen-induced thymocyte proliferation procedure (LAF); type: cell-based; settings: in vitro, rapamycin 1.0, 72 hours culture with PHA and IL-1
Experimental: (§2) Immunosuppressive activity was evaluated in an in vitro standard pharmacological test procedure to measure lymphocyte proliferation (LAF) and in two in vivo standard pharmacological test procedures. The first in vivo procedure was a popliteal lymph node (PLN) test procedure which measured the effect of compounds of this invention on a mixed lymphocyte reaction and the second in vivo procedure evaluated the survival time of a pinch skin graft.
Briefly, cells from the thymus of normal BALB/c mice are cultured for 72 hours with PHA and IL-1 and pulsed with tritiated thymidine during the last six hours. […] Cells are harvested and incorporated; radioactivity is determined. Inhibition of lymphoproliferation is assessed in percent change in counts per minute from non-drug treated controls. The results are expressed by the following ratio: [formula]

[2] = tested on: Candida albicans ATCC 38247; assay: Antifungal plate test, inhibition of Candida albicans ATCC 38247; type: cell-based; settings: for MIC: Candida albicans, ATCC38247, read-out: MIC to inhibit growth
Experimental: as §1

[3] = tested on: Candida albicans ATCC 10231; assay: Antifungal plate test, inhibition of Candida albicans ATCC 10231; type: cell-based; settings: for MIC: Candida albicans, ATCC10231, read-out: MIC to inhibit growth
Experimental: as §1

[4] = tested on: pinch skin graft from male DBA/2 donors; assay: Survival time of pinch skin graft; type: in vivo, male BALB/c mice (recipients); settings: intraperitoneally; mean ± S.D.
Experimental: as §2
The second in vivo test procedure is designed to determine the survival time of pinch skin graft from male DBA/2 donors transplanted to male BALB/c recipients. The method is adapted from Billingham R. E. and Medawar P. B., J. Exp. Biol. 28:385-402, (1951). Briefly, a pinch skin graft from the donor is grafted on the dorsum of the recipient as a homograft, and an autograft is used as control in the same region. […] Untreated recipients serve as rejection control. The graft is monitored daily and observations are recorded until the graft becomes dry and forms a blackened scab. This is considered as the rejection day. The mean graft survival time (number of days±S.D.) of the drug treatment group is compared with the control group.

[5] = tested on: Candida albicans ATCC 38246; assay: Antifungal plate test, inhibition of Candida albicans ATCC 38246; type: cell-based; settings: for MIC: Candida albicans, ATCC38246, read-out: MIC to inhibit growth
Experimental: as §1

[6] = tested on: Candida albicans ATCC 38248; assay: Antifungal plate test, inhibition of Candida albicans ATCC 38248; type: cell-based; settings: for MIC: Candida albicans, ATCC38248, read-out: MIC to inhibit growth
Experimental: as §1

Candida albicans = settings: in vitro and in vivo; cited from earlier work
IgE-like antibodies = settings: in vivo; cited from earlier work
multiple sclerosis = settings: in vivo; cited from earlier work
[7] = alone or in combination with picibanil; cited from earlier work
transplant rejection = settings: cited from earlier work
[8] = tested on: mixed lymphocyte reaction in popliteal lymph node; assay: In vivo popliteal lymph node (PLN) test procedure; set-up: species or system C3H mice (BALB/c donors); settings: for PLN Assay (ratio): in vivo, rapamycin 1.0, p.o. daily Day 0 to Day 4
Experimental: as §2
A mixed lymphocyte reaction (MLR) occurs when lymphoid cells from genetically distinct animals are combined in tissue culture. Each stimulates the other to undergo blast transformation which results in increased DNA synthesis that can be quantified by the incorporation of tritiated thymidine. Since stimulating a MLR is a function of disparity at Major Histocompatibility antigens, an in vivo popliteal lymph node (PLN) test procedure closely correlates to host vs. graft disease. Briefly, irradiated spleen cells from BALB/c donors are injected into the right hind foot pad of recipient C3H mice. The drug is given daily, p.o. from Day 0 to Day 4. On Day 3 and Day 4, tritiated thymidine is given i.p., b.i.d. On Day 5, the hind popliteal lymph nodes are removed and dissolved, and radioactivity counted. The corresponding left PLN serves as the control for the PLN from the injected hind foot. Percent suppression is calculated using the non-drug treated animals as allogenic control. […] Results are expressed by the following ratio: [formula]

Compound	MIC to inhibit growth (Candida albicans 3669) [µg/mL]	LAF Assay (ratio) [1]	MIC to inhibit growth [2] [ng/mL]	MIC to inhibit growth [3] [ng/mL]	Skin Graft Assay (days + SD), mean graft survival time [4] [days]	MIC to inhibit growth [5] [µg/mL]	MIC to inhibit growth [6] [µg/mL]	antifungal activity (Candida albicans)	inhibition of formation of IgE-like antibodies (IgE-like antibodies)	MIC (Candida albicans 3669) [µg/mL]	effect in experimental allergic encephalomyelitis model (multiple sclerosis)	MIC [2] [ng/mL]	antitumor activity [7]	inhibition of transplant rejection / immunosuppressive effect (transplant rejection)	MIC [3] [µg/mL]	MIC [5] [µg/mL]	Percent suppression (PLN) ([8]; 6 mg/kg, p.o.) [%]	PLN Assay (ratio) [8]	MIC [6] [µg/mL]
1,2,3,4-Tetrahydrorapamycin [Example 2]	0.0125	0.036	6	6	7.0 ± 0.9	0.05	0.0125												
CO[C@H]1C[C@@H]2CC[C@@H](C)[C@@](O)(O2)C(=O)C(=O)N2CCCC[C@H]2C(=O)O[C@H]([C@H](C)C[C@@H]2CC[C@@H](O)[C@H](OC)C2)CC(=O)[C@H](C)/C=C(\C)[C@@H](O)[C@@H](OC)C(=O)[C@H](C)C[C@H](C)/C=C/C=C/C=C/1C [Rapamycin, rapamycin]					12.0 ± 1.7			antifungal activity, particularly against Candida albicans, both in vitro and in vivo	effectively inhibited the formation of IgE-like antibodies	0.025 (≈ 0.0273 µM)	effective in the experimental allergic encephalomyelitis model	3 (≈ 0.00328 µM)	antitumor activity	effective in inhibiting transplant rejection	0.003 (≈ 0.00328 µM)	0.025 (≈ 0.0273 µM)	86	1.0	0.006 (≈ 0.00656 µM)
CO[C@H]1C[C@@H]2CC[C@@H](C)[C@@](O)(O2)C(=O)C(=O)N2CCCC[C@H]2C(=O)O[C@H]([C@H](C)C[C@@H]2CC[C@@H](O)[C@H](OC)C2)CC(=O)[C@H](C)/C=C(\C)[C@@H](O)[C@@H](OC)C(=O)[C@H](C)C[C@H](C)CC/C=C/C=C/1C [Example 1, 1,2-Dihydrorapamycin]					7.3 ± 0.9					0.2 (≈ 0.218 µM)		> 400			0.4 (≈ 0.437 µM)	0.2 (≈ 0.218 µM)		-1.67	0.2 (≈ 0.218 µM)
C=CC[C@@H]1/C=C(\C)C[C@H](C)C[C@H](OC)[C@H]2O[C@@](O)(C(=O)C(=O)N3CCCC[C@H]3C(=O)O[C@H](/C(C)=C/[C@@H]3CC[C@@H](O)[C@H](OC)C3)[C@H](C)[C@@H](O)CC1=O)[C@H](C)C[C@@H]2OC [FK-506]														effective as immunosuppressive agents					
